The source of these data is patent US8735414B2 (priority 2009, dated 2014).

The test system of series [1] is bicistronic HCV replicon (replicon RNA, GenBank Accession No. AJ242654). Description: HCV Replicon Assay. Conditions: Hepatitis C virus, 72 h, read-out: Replicon IC50. It counts as cell-based. On the technique in general: A replicon is a self-replicating genome or part of one, used to study replication in cells.

As a reminder, the melting point is the temperature, or range, at which the solid turns liquid. One may read the IC50 as the point on the concentration scale where inhibition reaches its midpoint. `Cc1cc2c(cc1F)c(C#N)c(-c1ccc(S(=O)(=O)N[C@@H](C)C(F)(F)F)cn1)n2-c1ccc([N+](=O)[O-])cn1` [compound 744, 6-[3-cyano-5-fluoro-6-methyl-1-(5-nitropyridin-2-yl)-1H-indol-2-yl]-N-[(2S)-1,1,1-trifluoropropan-2-yl]pyridine-3-sulfonamide] displayed a melting point of 260 to 263 °C. Also, the IC50 in series [1] is less than 500 nM.
Compound `Cc1ccc2c(c1)c(C#N)c(-c1ccc(S(=O)(=O)N[C@@H](C)C(F)(F)F)cn1)n2-c1ccccc1` [compound 921, 6-(3-cyano-5-methyl-1-phenyl-1H-indol-2-yl)-N-[(2S)-1,1,1-trifluoropropan-2-yl]pyridine-3-sulfonamide] came in with a melting point of 160 to 165 °C. Moreover, the IC50 in series [1] is less than 500 nM.
The compound `N#Cc1c(-c2ccc(S(=O)(=O)NC(CF)CF)cn2)n(C2CCC2)c2cc(Cl)ccc12` [compound 37, 6-(6-chloro-3-cyano-1-cyclobutyl-1H-indol-2-yl)-N-(1,3-difluoropropan-2-yl)pyridine-3-sulfonamide] yielded a melting point of 200 to 202 °C. For the same compound, in series [1], the IC50 was less than 500 nM.
Regarding `CC(C)(NS(=O)(=O)c1ccc(-c2c(C(N)=O)c3cc(F)c(OC(F)F)cc3n2C2CCC2)nc1)C(F)(F)F` [compound 729, 1-cyclobutyl-6-(difluoromethoxy)-5-fluoro-2-{5-[(1,1,1-trifluoro-2-methylpropan-2-yl)sulfamoyl]pyridin-2-yl}-1H-indole-3-carboxamide], the melting point lay in the range of 207 to 209 °C. Further, the IC50 in series [1] is less than 500 nM.
For `N#Cc1c(-c2ncc(S(=O)(=O)NC(CF)CF)cn2)n(C2CCCC2)c2ccc(F)cc12` [compound 240, 2-(3-cyano-1-cyclopentyl-5-fluoro-1H-indol-2-yl)-N-(1,3-difluoropropan-2-yl)pyrimidine-5-sulfonamide], in that order: 201 to 206 °C and less than 500 nM.
For the compound `Cc1c(F)cc2c(c1F)c(C#N)c(-c1ccc(S(=O)(=O)NC(CF)CF)cn1)n2C1CCCC1` [compound 558, 6-(3-cyano-1-cyclopentyl-4,6-difluoro-5-methyl-1H-indol-2-yl)-N-(1,3-difluoropropan-2-yl)pyridine-3-sulfonamide], the melting point was 214 to 219 °C. In addition, in series [1], the IC50 is less than 500 nM.
For `C[C@H](NS(=O)(=O)c1ccc(-c2c(C#N)c3ccc(C(F)(F)F)cc3n2-c2ccccn2)nc1)C(F)(F)F` [compound 952, 6-[3-cyano-1-(pyridin-2-yl)-6-(trifluoromethyl)-1H-indol-2-yl]-N-[(2S)-1,1,1-trifluoropropan-2-yl]pyridine-3-sulfonamide], in that order: 173 to 176 °C and less than 500 nM.
In the same order, the values of `Cc1cc2c(cc1F)c(C(N)=O)c(-c1ccc(S(=O)(=O)NC3(C(F)(F)F)CC3)cn1)n2C1CCCCC1` [compound 857, 1-cyclohexyl-5-fluoro-6-methyl-2-(5-{[1-(trifluoromethyl)cyclopropyl]sulfamoyl}pyridin-2-yl)-1H-indole-3-carboxamide] are 273 to 274 °C and less than 500 nM.
For `N#Cc1c(-c2ccc(S(=O)(=O)NC(CF)CF)cn2)n(-c2ccccc2)c2ccc(F)cc12` [compound 113, 6-(3-cyano-5-fluoro-1-phenyl-1H-indol-2-yl)-N-(1,3-difluoropropan-2-yl)pyridine-3-sulfonamide], in that order: 165 to 168 °C and less than 500 nM.
On to `C[C@H](NS(=O)(=O)c1cnc(-c2c(C#N)c3ccc(CC(F)F)cc3n2C2CCCC2)nc1)C1CC1` [compound 597, 2-[3-cyano-1-cyclopentyl-6-(2,2-difluoroethyl)-1H-indol-2-yl]-N-[(1S)-1-cyclopropylethyl]pyrimidine-5-sulfonamide], for which the melting point is 181 to 189 °C. Besides, in series [1], the IC50 was less than 500 nM.
For `C[C@H](NS(=O)(=O)c1ccc(-c2c(C#N)c3ccc(F)cc3n2CC2CC2)nc1)C(F)(F)F` [compound 397, 6-[3-cyano-1-(cyclopropylmethyl)-6-fluoro-1H-indol-2-yl]-N-[(2S)-1,1,1-trifluoropropan-2-yl]pyridine-3-sulfonamide], in that order: 174 to 175 °C and less than 500 nM.
In the same order, the values of `CCc1cc2c(cc1F)c(C#N)c(-c1ccc(S(=O)(=O)N[C@@H](C)C(F)(F)F)cn1)n2-c1cccc(Cl)c1` [compound 1018, 6-[1-(3-chlorophenyl)-3-cyano-6-ethyl-5-fluoro-1H-indol-2-yl]-N-[(2S)-1,1,1-trifluoropropan-2-yl]pyridine-3-sulfonamide] are 195 to 198 °C and less than 500 nM.
In the case of `Cc1cc2c(cc1F)c(C(N)=O)c(-c1ccc(S(=O)(=O)N[C@@H](C)C(F)(F)F)cn1)n2-c1ncccc1F` [compound 902, 5-fluoro-1-(3-fluoropyridin-2-yl)-6-methyl-2-(5-{[(2S)-1,1,1-trifluoropropan-2-yl]sulfamoyl}pyridin-2-yl)-1H-indole-3-carboxamide], the melting point lay in the range of 130 to 138 °C. The IC50 in series [1] is 500 to 2000 nM.
For `N#Cc1c(-c2ccc(S(=O)(=O)NC(CF)CF)cn2)n(C2CCCC2)c2cc(C3CC3)ccc12` [compound 85, 6-(3-cyano-1-cyclopentyl-6-cyclopropyl-1H-indol-2-yl)-N-(1,3-difluoropropan-2-yl)pyridine-3-sulfonamide], in that order: 194 to 200 °C and less than 500 nM.
For `C[C@H](NS(=O)(=O)c1ccc(-c2c(C(N)=O)c3cc(Cl)ccc3n2C2CCC2)nc1)C(F)(F)F` [compound 996, 5-chloro-1-cyclobutyl-2-(5-{[(2S)-1,1,1-trifluoropropan-2-yl]sulfamoyl}pyridin-2-yl)-1H-indole-3-carboxamide], in that order: 244 to 245 °C and less than 500 nM.
In the case of `CCc1cc2c(cc1F)c(C(=O)O)c(-c1ccc(NS(=O)(=O)C(C)(C)C)nc1)n2[C@H](C)C1CC1` [compound 1103, 2-{6-[(tert-butylsulfonyl)amino]pyridin-3-yl}-1-[(1R)-1-cyclopropylethyl]-6-ethyl-5-fluoro-1H-indole-3-carboxylic acid], the melting point is 165 °C (dec.). Further, the IC50 in series [1] lay in the range of 500 to 2000 nM.
For `C[C@H](C1CC1)n1c(-c2ccc(NS(=O)(=O)C(C)(C)C)nc2)c(C(N)=O)c2cc(F)c(OC(F)F)cc21` [compound 1085, 2-{6-[(tert-butylsulfonyl)amino]pyridin-3-yl}-1-[(1R)-1-cyclopropylethyl]-6-(difluoromethoxy)-5-fluoro-1H-indole-3-carboxamide], in that order: 228 to 230 °C and less than 500 nM.
In the case of `Cc1ccc2c(c1)c(C#N)c(-c1ncc(S(=O)(=O)N[C@@H](C)C3CC3)cn1)n2C(C)C` [compound 563, 2-[3-cyano-5-methyl-1-(propan-2-yl)-1H-indol-2-yl]-N-[(1S)-1-cyclopropylethyl]pyrimidine-5-sulfonamide], the melting point is 171 to 174 °C. Moreover, the IC50 in series [1] is 500 to 2000 nM.
On to `CCc1cc2c(cc1F)c(C(N)=O)c(-c1ccc(S(=O)(=O)N[C@@H](C)C(F)(F)F)cn1)n2-c1ccc(C(F)(F)F)cc1` [compound 1022, 6-ethyl-5-fluoro-1-[4-(trifluoromethyl)phenyl]-2-(5-{[(2S)-1,1,1-trifluoropropan-2-yl]sulfamoyl}pyridin-2-yl)-1H-indole-3-carboxamide], for which the melting point lay within 253 to 259 °C. In addition, in series [1], the IC50 was less than 500 nM.
